Assay results from patent US12319652B2, “Salts and solid forms of (R)-1-(5-methoxy-1H-indol-1-yl)-N,N-dimethylpropan-2-amine” (priority 2021, dated 2025).

Test: Suspension equilibration of Compound 1 HCl at 20 and 40° C.
Description: The purpose of this panel was to determine if Form A evolves into a supra-ordinate form, the companion panel at 40° C. set-point was in place to detect enantiotropic behavior via different relative proportions in different solvents.
All isolated products, both wet and dry were consistent with Form A at both temperatures.

[1] = 2-Propanol 5.0 vol, panel at 40° C.
[2] = Acetone 5.0 vol, equilibration at 20° C.
[3] = Acetone 5.0 vol, panel at 40° C.
[4] = Acetone/Water (5% v/v, 0.5 aw) 5.0 vol, equilibration at 20° C.
[5] = Acetonitrile 5.0 vol, panel at 40° C.
[6] = Chlorobenzene 5.0 vol, equilibration at 20° C.
[7] = Chlorobenzene 5.0 vol, panel at 40° C.
[8] = DCM 5.0 vol, equilibration at 20° C.
[9] = EtOAc 5.0 vol, equilibration at 20° C.
[10] = EtOH 5.0 vol, equilibration at 20° C.
[11] = Ethanol 5.0 vol, panel at 40° C.
[12] = Ethyl acetate 5.0 vol, panel at 40° C.
[13] = Ethyl formate 5.0 vol, equilibration at 20° C.
[14] = Ethyl formate 5.0 vol, panel at 40° C.
[15] = Heptane 5.0 vol, equilibration at 20° C.
[16] = Heptane 5.0 vol, panel at 40° C.
[17] = Isopropanol/Water (12% v/v, 0.5 aw) 5.0 vol, equilibration at 20° C.
[18] = Isopropyl acetate 5.0 vol, equilibration at 20° C.
[19] = Isopropyl acetate 5.0 vol, panel at 40° C.
[20] = MEK 5.0 vol, equilibration at 20° C.
[21] = MeCN 5.0 vol, equilibration at 20° C.
[22] = MeOH 5.0 vol, equilibration at 20° C.
[23] = Methanol 5.0 vol, panel at 40° C.
[24] = Methyl acetate 5.0 vol, equilibration at 20° C.
[25] = Methyl acetate 5.0 vol, panel at 40° C.
[26] = Nitromethane 5.0 vol, panel at 40° C.
[27] = TBME 5.0 vol, equilibration at 20° C.
[28] = Toluene 5.0 vol, panel at 40° C.
[29] = Water 5.0 vol, equilibration at 20° C.

With `COc1ccc2c(ccn2C[C@@H](C)N(C)C)c1.Cl` [Compound 1 HCl] the “Observations (t = 0 @ 20° C.)” value (2-Propanol 5.0 vol, equilibration at 20° C.) was “Suspension”, the “Observations (t = 0 @ 20° C.)” value [1] was “Suspension” and the “Observations (t = 1 d @ 20° C.)” value [1] was “Suspension”. For the same compound, the “Observations (t = 0 @ 20° C.)” value [2] was “Suspension”, the “Observations (t = 1 d @ 20° C.)” value [2] was “Suspension” and the “Observations (t = 10 d @ 20° C.)” value [2] was “White Paste”. The “Observations (t = 0 @ 20° C.)” value [3] was “Suspension”, the “Observations (t = 1 d @ 20° C.)” value [3] was “Suspension” and the “Observations (t = 10 d @ 20° C.)” value [3] was “Yellow susp”. For the same compound, the “Observations (t = 0 @ 20° C.)” value [4] was “Suspension”, the “Observations (t = 1 d @ 20° C.)” value [4] was “Suspension” and the “Observations (t = 10 d @ 20° C.)” value [4] was “Pink paste”. The “Observations (t = 0 @ 20° C.)” value (Acetone/Water (5% v/v, 0.5 aw) 5.0 vol, panel at 40° C.) was “Suspension”, the “Observations (t = 0 @ 20° C.)” value [5] was “Suspension” and the “Observations (t = 1 d @ 20° C.)” value [5] was “Suspension”. For the same compound, the “Observations (t = 0 @ 20° C.)” value [6] was “Suspension”, the “Observations (t = 1 d @ 20° C.)” value [6] was “Suspension” and the “Observations (t = 0 @ 20° C.)” value [7] was “Suspension”. The “Observations (t = 1 d @ 20° C.)” value [7] was “Suspension”, the “Observations (t = 0 @ 20° C.)” value [8] was “Suspension” and the “Observations (t = 1 d @ 20° C.)” value [8] was “Suspension”. For the same compound, the “Observations (t = 10 d @ 20° C.)” value [8] was “Pink paste”, the “Observations (t = 0 @ 20° C.)” value (DCM 5.0 vol, panel at 40° C.) was “Suspension” and the “Observations (t = 1 d @ 20° C.)” value (DCM 5.0 vol, panel at 40° C.) was “Suspension”. The “Observations (t = 0 @ 20° C.)” value [9] was “Suspension”, the “Observations (t = 1 d @ 20° C.)” value [9] was “Suspension” and the “Observations (t = 10 d @ 20° C.)” value [9] was “White paste”. For the same compound, the “Observations (t = 0 @ 20° C.)” value [10] was “Suspension”, the “Observations (t = 1 d @ 20° C.)” value [10] was “Suspension” and the “Observations (t = 10 d @ 20° C.)” value [10] was “Pink paste”. For the same compound, the “Observations (t = 0 @ 20° C.)” value [11] was “Suspension”, the “Observations (t = 1 d @ 20° C.)” value [11] was “Suspension” and the “Observations (t = 0 @ 20° C.)” value (Ethanol/Water (15% v/v, 0.5 aw) 5.0 vol, equilibration at 20° C.) was “Suspension”. For the same compound, the “Observations (t = 0 @ 20° C.)” value [12] was “Suspension”, the “Observations (t = 1 d @ 20° C.)” value [12] was “Suspension” and the “Observations (t = 0 @ 20° C.)” value [13] was “Suspension”. For the same compound, the “Observations (t = 1 d @ 20° C.)” value [13] was “Suspension”, the “Observations (t = 0 @ 20° C.)” value [14] was “Suspension” and the “Observations (t = 1 d @ 20° C.)” value [14] was “Suspension”. The “Observations (t = 0 @ 20° C.)” value [15] was “Suspension”, the “Observations (t = 1 d @ 20° C.)” value [15] was “Suspension” and the “Observations (t = 0 @ 20° C.)” value [16] was “Suspension”. The “Observations (t = 1 d @ 20° C.)” value [16] was “Suspension”, the “Observations (t = 0 @ 20° C.)” value [17] was “Suspension” and the “Observations (t = 1 d @ 20° C.)” value [17] was “Partial”. The “Observations (t = 0 @ 20° C.)” value (Isopropanol/Water (12% v/v, 0.5 aw) 5.0 vol, panel at 40° C.) was “Suspension”, the “Observations (t = 0 @ 20° C.)” value [18] was “Suspension” and the “Observations (t = 1 d @ 20° C.)” value [18] was “Suspension”. The “Observations (t = 0 @ 20° C.)” value [19] was “Suspension”, the “Observations (t = 1 d @ 20° C.)” value [19] was “Suspension” and the “Observations (t = 0 @ 20° C.)” value [20] was “Suspension”. For the same compound, the “Observations (t = 1 d @ 20° C.)” value [20] was “Suspension”, the “Observations (t = 0 @ 20° C.)” value (MEK 5.0 vol, panel at 40° C.) was “Suspension” and the “Observations (t = 1 d @ 20° C.)” value (MEK 5.0 vol, panel at 40° C.) was “Suspension”. The “Observations (t = 0 @ 20° C.)” value [21] was “Suspension”, the “Observations (t = 1 d @ 20° C.)” value [21] was “Suspension” and the “Observations (t = 10 d @ 20° C.)” value [21] was “White Paste”. For the same compound, the “Observations (t = 0 @ 20° C.)” value [22] was “Suspension”, the “Observations (t = 1 d @ 20° C.)” value [22] was “Suspension” and the “Observations (t = 0 @ 20° C.)” value (MeTHE 5.0 vol, equilibration at 20° C.) was “Suspension”. The “Observations (t = 0 @ 20° C.)” value (MeTHF 5.0 vol, panel at 40° C.) was “Suspension”, the “Observations (t = 1 d @ 20° C.)” value (MeTHF 5.0 vol, panel at 40° C.) was “Suspension” and the “Observations (t = 0 @ 20° C.)” value [23] was “Suspension”. For the same compound, the “Observations (t = 1 d @ 20° C.)” value [23] was “Suspension”, the “Observations (t = 0 @ 20° C.)” value [24] was “Suspension” and the “Observations (t = 1 d @ 20° C.)” value [24] was “Suspension”. The “Observations (t = 0 @ 20° C.)” value [25] was “Suspension”, the “Observations (t = 1 d @ 20° C.)” value [25] was “Suspension” and the “Observations (t = 0 @ 20° C.)” value (Nitromethane 5.0 vol, equilibration at 20° C.) was “Suspension”. The “Observations (t = 0 @ 20° C.)” value [26] was “Suspension”, the “Observations (t = 1 d @ 20° C.)” value [26] was “Suspension” and the “Observations (t = 0 @ 20° C.)” value [27] was “Suspension”. The “Observations (t = 1 d @ 20° C.)” value [27] was “Suspension”, the “Observations (t = 10 d @ 20° C.)” value [27] was “White Paste” and the “Observations (t = 0 @ 20° C.)” value (THF 5.0 vol, equilibration at 20° C.) was “Suspension”. For the same compound, the “Observations (t = 0 @ 20° C.)” value (THF 5.0 vol, panel at 40° C.) was “Suspension”, the “Observations (t = 1 d @ 20° C.)” value (THF 5.0 vol, panel at 40° C.) was “Suspension” and the “Observations (t = 0 @ 20° C.)” value (Toluene 5.0 vol, equilibration at 20° C.) was “Suspension”. The “Observations (t = 0 @ 20° C.)” value [28] was “Suspension”, the “Observations (t = 1 d @ 20° C.)” value [28] was “Suspension” and the “Observations (t = 0 @ 20° C.)” value [29] was “Solution”. For the same compound, the “Observations (t = 1 d @ 20° C.)” value [29] was “Solution”, the “Observations (t = 0 @ 20° C.)” value (Water 5.0 vol, panel at 40° C.) was “Solution” and the “Observations (t = 10 d @ 20° C.)” value (Water 5.0 vol, panel at 40° C.) was “Orange susp”. The “Observations (t = 0 @ 20° C.)” value (tBME 5.0 vol, panel at 40° C.) was “Suspension” and the “Observations (t = 1 d @ 20° C.)” value (tBME 5.0 vol, panel at 40° C.) was “Suspension”.
